# Patent US20260232666A1, “COMPOSITIONS AND METHODS FOR INHIBITION OF RAS” (TheRas, Inc., priority 2023, published 2026)
# Columns and labels:
# [1] = molecular target: T1, GDP-loaded KRAS4b (amino acids 1-169) G12C/C118S protein (Homo sapiens, UniProt P01116, C118S/G12C); experiment: Covalent cysteine 12 modification by MALDI-TOF MS, GDP-loaded KRAS G12C; type: binding; details: 15 minutes reaction time point
# T1 construct: KRAS4b (amino acids 1-169) G12C/C118S protein; made in house
# Protocol: (§1) Biological Example 1: Covalent Cysteine 12 Modification Analysis Using Matrix Assisted Laser Desorption Ionization-Time of Flight Mass Spectrometry (MALDI-TOF MS)
# (§2) MALDI-TOF MS analysis was performed using 1 μM protein (KRAS G12C), and 1:2.5 protein to compound ratio.
# (§3) Reaction: 1 μM of GppNHp, GTP, or GDP-loaded KRAS4b (amino acids 1-169) G12C/C118S protein (produced in-house by Protein Expression Laboratory, FNLCR/Leidos Biomed) in 20 mM 4-(2-hydroxyethyl)-1-piperazineethanesulfonic acid (HEPES) buffer containing 150 mM NaCl, 1 mM MgCl2, pH 7.3 was prepared freshly before assay. Twelve-μL aliquots of protein were dispensed onto low volume 384-well plate, then 30 nL of tested compounds from 1 mM DMSO stocks were added to appropriate wells using ECHO 555 acoustic liquid handler (Labcyte Inc.). For each reaction/assay, three blanks were prepared by mixing 12 μL of protein solution with 30 nL DMSO. The contents of the wells were carefully mixed by aspiration, and then each plate was sealed with an adhesive cover, centrifuged at 2000 g for 1 minute, and kept in the dark at room temperature until 5 min, 15 min, 30 min, 2 h, or 6 h collections.
# (§4) Target pretreatment: Before each assay MALDI target (Bruker MPT 384 ground steel BC) was pre-treated by pipetting on each spot 0.75 μL of saturated sinapinic acid in acetonitrile (ACN).
# (§5) Sample preparation: At collection time point, 2 μL of reaction mixtures were pipetted out into 15 μL MALDI matrix solution (saturated solution of sinapinic acid in 1:1 ACN:water solution containing 0.75% trifluoroacetic acid (TFA)) deposited on 384 well polypropylene plate. Resulting solution was mixed by aspiration, centrifuged at 2000 g for 1 minute, then 1.5 μL aliquots were dispensed on pre-treated MALDI target using Beckman Coulter Biomek FXP 96/384-Span-8 Laboratory Automation Workstation. Finally, the MALDI target was dried under mild vacuum to produce spots with fine crystalline structure.
# (§6) Measurements: MALDI-TOF measurements were performed on a Bruker Daltonics rapiflex Tissuetyper TOF-TOF mass spectrometer using linear mode and mass range from 18.6 to 21.6 kDa. Detector gain was set to 3.3×(483 V), sample rate to 5 GS/s, real time smoothing to medium (175 MHz), laser smart beam pattern was set to: “MS Thin Layer M5”, and the laser frequency was 10000 Hz. Spectra were automatically collected using custom AutoXecute method. Laser power was auto adjusted using fuzzy control. The peak selection range was set to be between 19000 and 21500 Da. Peak evaluation uses half width parameter set to be smaller than 40 Da for processed spectrograms (centroid peak detection; smoothed by SavitzkyGolay algorithm using 7 m/z width and 2 cycles; baseline was subtracted using median algorithm with flatness 1 and median level 0.01). Fuzzy control used Proteins/Oligonucleotides protocol with minimum half width 1/10 times above threshold. Up to 40000 satisfactory shots were collected in 10000 shot steps. Dynamic termination was implemented to finish data collection when peak signal/noise ratio was reaching value of 50.
# (§7) Spectra processing: Spectra were smoothed by SavitzkyGolay algorithm using 7 m/z width and three cycles. Centroid peak detection algorithm was used with signal to noise threshold set to 6, relative intensity threshold 4%, peak width 10 m/z and median baseline subtraction using flatness of 1 and median level of 0.01. Peak intensity and area under the peak were evaluated and recorded for all peaks between 19,300 Da and 21,550 Da.
# (§8) Calculation of percent modification: Percent modification was calculated as a ratio of peak height for protein modified by compound to sum of peak height of remaining protein plus peak height for protein modified by compound. If multiple modifications were observed each was calculated as a ratio of peak height for given modification versus sum of peak heights for all observed protein species. Data reported in Table 4 are from 15 minutes reaction time point. […]
# [2] = molecular target: T2, GTP-loaded KRAS4b (amino acids 1-169) G12C/C118S protein (Homo sapiens, UniProt P01116, C118S/G12C); experiment: Covalent cysteine 12 modification by MALDI-TOF MS, GTP-loaded KRAS G12C; type: binding; details: 15 minutes reaction time point
# T2 construct: KRAS4b (amino acids 1-169) G12C/C118S protein; made in house
# Protocol: as §1, §2, §3, §4, §5, §6, §7, §8
# pERK in NCI-H358 cells = experiment: Cell-based pERK HTRF assay (pERK inhibition in H358 cells); details: Homo sapiens, NCI-H358, 0.5 h, 30 min incubation
# Protocol: Biological Example 3: Cell-Based pERK HTRF Assay
# pERK assays (Perkin Elmer) were used to determine the effectiveness of compounds of the present disclosure in disrupting KRAS G12C protein/effector signaling in cells.
# On Day 1, cells (NCI-H358) were seeded into 96-well plates at 4×10^4 cells/well in complete growth media (RPMI, 10% FBS).
# On Day 2, cells were treated with compounds at 0.25% DMSO. The source plate was created with compounds diluted in media at 5-fold the final assay concentration. The compounds were run in a 9-point concentration curve starting at 75 μM, with a 3-fold dilution between concentrations. 20 μL was transferred onto the cell plates (final volume in wells was 100 μL). Plates were harvested after 30 min incubation by aspirating media and adding kit-supplied 1× supplemented lysis buffer to all wells (75 μl per well). Plates were then placed on a plate shaker and incubated at 850 rpm for an additional 30 min.
# Antibody mixture solution was prepared by diluting aliquoted d2 and Eu Cryptate antibodies 1:20 in kit supplied detection buffer, then mixed the diluted antibodies solutions (1:1 v:v). 4 μL of this solution was then added to a 384-well detection plate (Perkin Elmer; 6008230).
# Samples were homogenized by pipetting up and down and then transferred (16 μL of cell lysates) from the 96-well cell culture plate to two wells of the HTRF 384-well detection plate containing the antibody solution. Plates were centrifuged (524 g for […]) and allowed to incubate between 4 and 24 h at room temperature. Maximum signal is reached after 4 h incubation time and remains stable over a period of 24 hours. Therefore, readings can be made between 4 and 24 h of incubation. Plates were centrifuged again (524 g for 1 min), and analyzed on the En Vision plate reader using the following settings: Excitation 320 nm, Bandwidth 75 nm; Emission 615 nm, Bandwidth 85 nm; Gain 100%; Flashes 100; Lag 60 μs.
# The percent of modification of GppNHp, GTP, or GDP loaded KRAS G12C by MALDI-TOF MS, biochemical Raf1 RBD-KRAS G12C-GppNHp disruption assay IC50, and pERK inhibition IC50 of selected compounds described herein are shown in Table 4. For percent of modification at 15 minutes (MALDI-TOF MS) of GppNHp, GTP, or GDP loaded KRAS G12C: A: percent of modification ≥70%; B: 50≤percent of modification <70%; C: 10%≤percent of modification <50%; D: percent of modification <10%. […] For pERK inhibition in H358 cell assay: A: IC50≤0.1 μM; B: 0.1 μM<IC50≤1 μM; C: IC50>1 μM. Blanks in the table represent that compound was not tested in the indicated assay.
# [3] = molecular target: T3, GppNHp-loaded KRAS4b (amino acids 1-169) G12C/C118S protein (Homo sapiens, UniProt P01116, C118S/G12C); experiment: Covalent cysteine 12 modification by MALDI-TOF MS, GppNHp-loaded KRAS G12C; type: binding; details: 15 minutes reaction time point
# T3 construct: KRAS4b (amino acids 1-169) G12C/C118S protein; made in house
# Protocol: as §1, §2, §3, §4, §5, §6, §7, §8
Compound,GDP-KRAS G12C percent of modification [1],GTP-KRAS G12C percent of modification [2],IC50 (pERK in NCI-H358 cells),GppNHp-KRAS G12C percent of modification [3]
C=CC(=O)N1CC[C@@H](N(C)c2nc(OC[C@@H]3[C@@H](OC)CCN3C)nc3c(F)c(-c4ccc(F)c5sc(N)c(C#N)c45)c(C(F)(F)F)cc23)[C@H]1C [Compound 197],A (percent of modification ≥70%),A (percent of modification ≥70%),< 0.1 µM,A (percent of modification ≥70%)
C=CC(=O)N1CC[C@@H](N(C)c2nc(OC[C@@H]3C(=C(F)F)CCN3C)nc3c(F)c(-c4ccc(F)c5sc(N)c(C#N)c45)c(C(F)(F)F)cc23)[C@H]1C [Compound 199],C (10%≤percent of modification <50%),C (10%≤percent of modification <50%),< 0.1 µM,C (10%≤percent of modification <50%)
C=CC(=O)N1CC[C@@H](N(C)c2nc(O[C@@H](C)[C@@H]3C(=C)CCN3C)nc3c(F)c(-c4ccc(F)c5sc(N)c(C#N)c45)c(Cl)cc23)[C@H]1C [Compound 200],C (10%≤percent of modification <50%),B (50≤percent of modification <70%),< 0.1 µM,A (percent of modification ≥70%)
C=CC(=O)N1CC[C@@H](N(C)c2nc(O[C@@H](C)[C@@H]3C(=C(F)F)CCN3C)nc3c(F)c(-c4ccc(F)c5sc(N)c(C#N)c45)c(Cl)cc23)[C@H]1C [Compound 201],B (50≤percent of modification <70%),C (10%≤percent of modification <50%),0.1 to 1 µM,B (50≤percent of modification <70%)
C=CC(=O)N1CC[C@@H](N(C)c2nc(OC[C@@H]3CC(=C(F)F)CN3C)nc3c(F)c(-c4ccc(F)c5sc(N)c(C#N)c45)c(Cl)cc23)[C@H]1C [Compound 202],B (50≤percent of modification <70%),C (10%≤percent of modification <50%),0.1 to 1 µM,B (50≤percent of modification <70%)
C=CC(=O)N1CC[C@@H](N(C)c2nc(O[C@@H](C)[C@@H]3C(=C)CCN3C)nc3c(F)c(-c4ccc(F)c5sc(N)c(C#N)c45)c(C(F)(F)F)cc23)[C@H]1C [Compound 203],A (percent of modification ≥70%),A (percent of modification ≥70%),< 0.1 µM,A (percent of modification ≥70%)
C=CC(=O)N1CC[C@@H](N(C)c2nc(O[C@@H](C)[C@@H]3CC(=C(F)F)CN3C)nc3c(F)c(-c4ccc(F)c5sc(N)c(C#N)c45)c(C(F)(F)F)cc23)[C@H]1C [Compound 204],C (10%≤percent of modification <50%),C (10%≤percent of modification <50%),0.1 to 1 µM,C (10%≤percent of modification <50%)

# Second part, the compound after the results:
GDP-KRAS G12C percent of modification [1],GTP-KRAS G12C percent of modification [2],IC50 (pERK in NCI-H358 cells),GppNHp-KRAS G12C percent of modification [3],Compound
B (50≤percent of modification <70%),B (50≤percent of modification <70%),0.1 to 1 µM,B (50≤percent of modification <70%),C[C@@H]1CN(c2nc(OC[C@@]34CCCN3C[C@H](F)C4)nc3c(F)c(-c4ccc(F)c5sc(N)c(C#N)c45)c(Cl)cc23)[C@@H](C)CN1C(=O)/C=C/c1nc(C(C)(F)F)no1 [Compound 191]
A (percent of modification ≥70%),A (percent of modification ≥70%),< 0.1 µM,A (percent of modification ≥70%),C=CC(=O)N1CC[C@@H](N(C)c2nc(O[C@@H](C)[C@@H]3[C@@H](OC)CCN3C)nc3c(F)c(-c4ccc(F)c5sc(N)c(C#N)c45)c(C(F)(F)F)cc23)[C@H]1C [Compound 193]
A (percent of modification ≥70%),A (percent of modification ≥70%),< 0.1 µM,A (percent of modification ≥70%),C=CC(=O)N1CC[C@@H](N(C)c2nc(O[C@@H](C)[C@@H]3C[C@@H](OC)CN3C)nc3c(F)c(-c4ccc(F)c5sc(N)c(C#N)c45)c(Cl)cc23)[C@H]1C [Compound 194]
A (percent of modification ≥70%),A (percent of modification ≥70%),< 0.1 µM,A (percent of modification ≥70%),C=CC(=O)N1CC[C@@H](N(C)c2nc(O[C@@H](C)[C@@H]3[C@@H](OC)CCN3C)nc3c(F)c(-c4ccc(F)c5sc(N)c(C#N)c45)c(Cl)cc23)[C@H]1C [Compound 195]
A (percent of modification ≥70%),A (percent of modification ≥70%),< 0.1 µM,A (percent of modification ≥70%),C=CC(=O)N1CC[C@@H](N(C)c2nc(OC[C@@H]3[C@@H](OC)CCN3C)nc3c(F)c(-c4ccc(F)c5sc(N)c(C#N)c45)c(Cl)cc23)[C@H]1C [Compound 196]
B (50≤percent of modification <70%),B (50≤percent of modification <70%),< 0.1 µM,B (50≤percent of modification <70%),C=CC(=O)N1CC[C@@H](N(C)c2nc(OC[C@@H]3C(=C(F)F)CCN3C)nc3c(F)c(-c4ccc(F)c5sc(N)c(C#N)c45)c(Cl)cc23)[C@H]1C [Compound 198]
